Structures are written as SMILES. Structures can show the parent of a compound that is named as a salt.

In the assay the target is T1, human GPR14 (Homo sapiens, UniProt Q9UKP6).
T1 construct: expressed in transfected cells
T1 sequence (Q9UKP6 1-389): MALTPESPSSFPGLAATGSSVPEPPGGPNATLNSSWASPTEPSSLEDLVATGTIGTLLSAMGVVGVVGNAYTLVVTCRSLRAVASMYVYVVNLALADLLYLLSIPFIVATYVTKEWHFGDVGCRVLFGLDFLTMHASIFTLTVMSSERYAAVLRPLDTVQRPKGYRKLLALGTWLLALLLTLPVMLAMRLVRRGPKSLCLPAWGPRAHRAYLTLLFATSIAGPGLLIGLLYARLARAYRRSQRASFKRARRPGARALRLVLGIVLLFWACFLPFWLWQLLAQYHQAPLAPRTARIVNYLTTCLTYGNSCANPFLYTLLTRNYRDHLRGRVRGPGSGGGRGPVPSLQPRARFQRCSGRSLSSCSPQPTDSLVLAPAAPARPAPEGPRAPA
Description: Inhibition of binding of [125I]-labeled human urotensin II to human GPR14-expressing CHO cell membrane fraction. The settings on record: 25° C., 3 hours, read-out: Inhibitory concentration (concentration at which the compound showed 50% inhibition of human GPR14 binding activity). Here is the method:
To 1×10^8 CHO/GPR14 cells were added 10 ml of homogenate buffer (10 mM NaHCO3, 5 mM EDTA, 0.5 mM PMSF, 1 μg/ml pepstatin, 4 μg/ml E64, 20 μg/ml leupeptin), and disrupted using Polytron (12,000 rpm, 1 minute). Cell debris solution was centrifuged at 1,000 g for 15 minutes to obtain a supernatant. The supernatant was then […] (in Beckman type 30 rotor, 30,000 rpm, 1 hour), and the resultant precipitant was collected as human GPR14-expressing CHO cell fraction.
Isotope-labeled human urotensin II to be used in experiments for testing inhibition of binding was prepared as described below. 5 μg of human urotensin II (available from Peptide Institute, Inc.) was dissolved in 25 μl of 0.4M sodium acetate (pH 5.6). To the solution was added 200 ng of lactoperoxidase (Wako Pure Chemical Industries, Ltd.) followed by 1 mCi [^125I]-sodium iodide (Amersham Pharmacia Biotech) and 200 ng of hydrogen peroxide (10 μl). The solution was left to stand at room temperature for 10 minutes, another 200 ng of hydrogen peroxide (10 μl) was added thereto and then the solution was left to stand for 10 minutes. The mixture was then purified by HPLC using TSKgel ODS-80Ts column (4.6 mm×25 cm, Toso Co., Ltd.) to obtain [^125I]-labeled human urotensin II.
Experiment for Testing the Ability of Test compound to Inhibit Binding of Urotensin II to GPR14 Using Human GPR14-Expressing Cell Fraction and Isotope-Labeled Urotensin II
Human GPR14-expressing CHO cell fraction was diluted in a membrane diluting buffer (20 mM phosphate buffer (pH7.3), 150 mM NaCl, 5 mM MgCl2, […], 0.05% CHAPS, 0.5 mM PMSF, 0.1 μg/ml Pepstatin, 20 μg/ml Leupeptin, 4 μg/ml E-64) to prepare a solution of cell membrane fraction (protein concentration: 3 μg/ml) for assay. […] Next, the filter was washed three times with membrane diluting buffer (0.2 ml), added with 20 μl of Microscinti 20 (Packard), and determined for radioactivity in Topcount (Packard). Specific-binding is calculated by subtracting non-specific binding from the total binding. […]
Consider `O=C(CCCN1CCN(C(c2ccc(F)cc2)c2ccc(F)cc2)CC1)c1ccc2c(c1)CCNCC2` [Example 6, 4-{4-[bis(4-fluorophenyl)methyl]-1-piperazinyl}-1-(2,3,4,5-tetrahydro-1H-3-benzazepin-7-yl)-1-butanone trihydrochloride], for which the IC50 was 3.2 nM.

`O=S(=O)(NCCN1CCN(Cc2ccccc2)CC1)c1ccc2c(c1)CCNCC2` [Example 75, N-[2-(4-benzyl-1-piperazinyl)ethyl]-2,3,4,5-tetrahydro-1H-3-benzazepine-7-sulfonamide trihydrochloride]: the IC50 came to 8.6 nM. With `O=C(NCCN1CCN(C(c2ccc(F)cc2)c2ccc(F)cc2)CC1)c1ccc2c(c1)CCNCC2` [Example 84, N-(2-{4-[bis(4-fluorophenyl)methyl]piperazin-1-yl}ethyl)-2,3,4,5-tetrahydro-1H-3-benzazepine-7-carboxamide trihydrochloride], the IC50 was 1.7 nM.

For the origin of these results see patent US20040063699A1, “Gpr14 antagonist” (priority 2000, published 2004).
